Reference: US20230227466A1, “SUBSTITUTED THIENOPYRIMIDINES THAT INTERACT WITH THE RAS SUPERFAMILY FOR THE TREATMENT OF CANCERS, INFLAMMATORY DISEASES, RASOPATHIES, AND FIBROTIC DISEASE” (SHY Therapeutics, LLC, priority 2020, published 2023)
Like-named read-outs stand apart in the source and are kept apart here.

Assays:
[1] = test system: MIA-PaCa-2 pancreatic cancer cell line (KRAS G12C); assay: Cell proliferation assay (CellTiter 96 Aqueous One); assay type: cell-based; details: Homo sapiens; for IC50: MIA PaCa-2, MIA PaCa-2; for inhibition at 10 µM: MIA PaCa-2, read-out: % inh cell proliferation (10 μM) in MIA PaCa-2
Experimental: Cell lines: Human tumor-derived cell lines were purchased from American Type Culture Collection. Human tumor-derived pancreatic cancer cell line MIA-PACA2 (having a KRAS G12C mutation) and Panc-1 (having a KRAS G12D mutation), and Human non-small cell lung cancer (NSCLC) cell line A549 (having a KRAS G12S mutation) were grown in complete DMEM-High Glucose. Human colon cancer cell line SW-620 (having a KRAS G12V mutation) was grown in RPMI. All cell lines were supplemented with penicillin (100 U/mL), streptomycin (100 μg/mL), and 10% heat-inactivated FBS at 37° C. in a humidified incubator with 5% CO2.
Method: Cells were plated at 2000 to 5000 cells/well density in 96-wells plate and cultured overnight. Small molecules to be tested were added to the cells in the final concentration of 10 μM in the presence of 0.3% DMSO and 10% FBS, and incubated for 2-4 days at 37° C. in a humidified incubator with 5% CO2. For IC50 value determination, serial dilutions of compounds were added to cells under the same conditions.
Assay: At the end of the incubation period, cell viability was measured using the CellTiter 96® Aqueous One Solution Cell Proliferation Assay according to manufacturer specifications (Promega, Madison, Wis.). The percentage of small molecules inhibition of cellular proliferation was calculated from raw data.

KRas G12C mutant = molecular target: T1, KRas G12C mutant (Homo sapiens, UniProt P01116, G12C); assay: Ras GTP binding domain inhibition assay (labeled-GTP competition, cell-free)
T1 construct: made in house
Excerpt: (§1) This is a competitive binding assay. It involves the immobilization of a protein on solid phase, interaction with a small molecule drug candidate, and then competitive binding with a labeled native GTP or GDP ligand.
(§2) In theory, the assay is suitable for use with any GTP or GDP binding protein.
(§3) The following method was developed as specific assay for the following proteins: KRas wild type, KRas Q61H mutant, KRas G12C mutant, KRas G12D mutant, Rac-1, and Rho-A.
(§4) The small GTPases proteins: KRas wild type. KRas Q61H mutant, KRas G12C mutant, KRas G12D mutants, Rac-1, and Rho-A were expressed as His-tagged proteins. In addition, the Guanosine nucleotide Exchange Factor (GEF) Sos protein (residues 556-1049) was expressed as a His-tagged protein. In cells, the guanine nucleotide exchange factor Sos protein promotes activation of Ras proteins by stimulating an exchange of GDP for GTP. The inclusion of Sos to the Ras GTP binding domain inhibition assay may be considered as an alternative representation of physiological cellular conditions for evaluating the inhibitory activity of some of the tested small molecules.
(§5) For the assay, all purified small GTPases proteins were diluted in Buffer-I or Buffer-II to a final concentration of 10-30 μg/mL. 200 μL of each diluted protein was added to a nickel-coated 96-well plate and incubated overnight at 4° C. Then the protein solution was discarded and 200 μL of Buffer-I or Buffer-II was added to each well in the presence of 1% DMSO. Compounds to be tested were added to the protein-coated wells at final concentration of 20 μM, and incubated for 3 hours at room temperature with and without 10-30 μg/mL of Sos added to the final hour of the incubation. When performing IC50 measurements a serial dilution of all tested concentrations was added. Then Cy3-GTP or Cy5-GTP was added to each well to a final concentration of 100 nM. The labeled GTP was incubated for 45 minutes at room temperature. Following GTP incubation, wells were washed 3× in Buffer-I or Buffer-II and 200 μL of Buffer-I or Buffer-II was added to each well. Following washes, the amount of bound labeled-GTP was measured using a SpectraMax M3 (Molecular Devices).

KRas G12D mutant = molecular target: T2, KRas G12D mutant (Homo sapiens, UniProt P01116, G12D); assay: as above
T2 construct: made in house
Excerpt: as §1, §2, §3, §4, §5

Rho-A = Rho-A (Homo sapiens, UniProt P61586); assay: as above; set-up: made in house
Excerpt: as §1, §2, §3, §4, §5

KRas wild type = KRas wild type (Homo sapiens, UniProt P01116); assay: as above; set-up: made in house
Excerpt: as §1, §2, §3, §4, §5

Rac-1 = Rac-1 (Homo sapiens, UniProt P63000); assay: as above; set-up: made in house
Excerpt: as §1, §2, §3, §4, §5

[2] = test system: Akt phosphorylation in Panc-1 cells; assay: Western AKT cell-based phosphorylation assay; set-up: species or system human; details: at 10 μM, values in brackets < > are activation %, not inhibition
Experimental: Human Tumor-Derived Pancreatic Cancer Cell Line Panc-1 was Purchased from
American Type Culture Collection and grown in complete DMEM-High Glucose supplemented with penicillin (100 U/mL), streptomycin (100 μg/mL), and 10% heat-inactivated FBS at 37° C. in a humidified incubator with 5% CO2.
Method: Cells were plated at 350000 cells/well density in a 12-well plate, allowed 3 hours to adhere to the plate, then starved in the appropriate medium in the presence of 0.5% FBS overnight. The small molecules to be tested were added to the cells in the final concentration of 10 μM in the presence of 0.3% DMSO for 6 hours incubation at 37° C. Next, cells were stimulated with 1.5 ng/ml EGF for 15 minutes then cells were lysed with lysis buffer containing 1% Triton X-100, EDTA, and Halt™ Protease & Phosphatase Inhibitor Cocktail (Thermo Scientific). Protein concentration was assessed by BCA protein assay (Thermo Scientific). Phosphorylation level of Akt was determined by western blot.
Western blot protocol: Equal amounts of protein (15-50 μg) were separated by SDS-PAGE and transferred to nitrocellulose membranes (Invitrogen by Thermo Fisher Scientific). The membrane was stained with Ponceau S Stain (Boston BioProducts) to verify uniform protein loading. Membranes were blocked with 10% milk and phosphorylation levels of Akt were assessed by incubating overnight at 4° C. with anti-phospho-Akt (Ser473) antibody (Cell Signaling) followed by HRP-conjugated secondary antibody (Jackson Immunoresearch, West Grove, Pa.). Bands were incubated in Amersham ECL Prime Western Blotting Detection Reagent (GE Healthcare) and visualized using the ChemiDoc MP imaging system (Bio-Rad).

[3] = with SOS, read-out: KRas G12C mutant + SOS: % inh.
[4] = without SOS, read-out: KRas G12C mutant: % inh.
[5] = without SOS, read-out: Rho-A: % inh.
[6] = with SOS, read-out: KRas wild type + SOS: % inh.
[7] = without SOS, read-out: KRas wild type: % inh.
[8] = without SOS, read-out: Rac-1: % inh.

Row | SMILES | IC50 [1] | inhibition at 10 µM [1] | inhibition at 20 µM (KRas G12C mutant; [3]) | inhibition at 20 µM (KRas G12C mutant; [4]) | inhibition at 20 µM (KRas G12D mutant; with SOS, read-out: KRas G12D mutant + SOS: % inh.) | inhibition at 20 µM (KRas G12D mutant; without SOS, read-out: KRas G12D mutant: % inh.) | inhibition at 20 µM (Rho-A; with SOS, read-out: Rho-A + SOS: % inh.) | inhibition at 20 µM (Rho-A; [5]) | inhibition at 20 µM (KRas wild type; [6]) | inhibition at 20 µM (KRas wild type; [7]) | inhibition at 20 µM (Rac-1; with SOS, read-out: Rac-1 + SOS: % inh.) | inhibition at 20 µM (Rac-1; [8]) | % inh of AKT phosphorylation in PANC-1 [2]
1 | COCCn1ccnc1-c1nc(N[C@@H]2CC[C@H](OC)C2)c2c(-c3ccccc3)c(-c3ccn(C)n3)sc2n1 (racemic) [Compound 6, Rac-N-((1R,3S)-3-methoxycyclopentyl)-2-(1-(2-methoxyethyl)-1H-imidazol-2-yl)-6-(1-methyl-1H-pyrazol-3-yl)-5-phenylthieno[2,3-d]pyrimidin-4-amine] | 1 to 4.99 µM | 76 to 100% | 76 to 100% | 76 to 100% | 76 to 100% | 76 to 100% | 76 to 100% | 76 to 100% | 76 to 100% | 76 to 100% | 76 to 100% | 76 to 100% | 0 (0% inhibition)
2 | CO[C@@H]1CC[C@H]1CNc1nc(-c2nccn2C)nc2sc(-c3ccn(C(C)C)n3)c(C)c12 (racemic) [Compound 61, rac-6-(1-Isopropyl-1H-pyrazol-3-yl)-N-(((1S,2R)-2-methoxycyclobutyl)methyl)-5-methyl-2-(1-methyl-1H-imidazol-2-yl)thieno[2,3-d]pyrimidin-4-amine] | < 1 µM | 76 to 100% | 76 to 100% | 51 to 75% | – | – | – | 51 to 75% | 76 to 100% | 76 to 100% | – | 26 to 50% | 0 (0% inhibition)
3 | CO[C@H]1CC[C@@H](Nc2nc(-c3nccn3C)nc3sc(-c4ccn(C(C)C)n4)c(C(F)(F)F)c23)C1 (racemic) [Compound 73, Rac-6-(1-isopropyl-1H-pyrazol-3-yl)-N-((1R,3S)-3-methoxycyclopentyl)-2-(1-methyl-1H-imidazol-2-yl)-5-(trifluoromethyl)thieno[2,3-d]pyrimidin-4-amine] | 1 to 4.99 µM | 76 to 100% | 76 to 100% | 1 to 25% | – | – | – | 51 to 75% | 76 to 100% | 1 to 25% | – | 1 to 25% | A (1-25% inhibition)
4 | COCC1CCN(c2nc(-c3nccn3C)nc3sc(-c4ccn(C(C)C)n4)c(C(F)(F)F)c23)C1 (racemic) [Compound 74, Rac-6-(1-Isopropyl-1H-pyrazol-3-yl)-4-(3-(methoxymethyl)pyrrolidin-1-yl)-2-(1-methyl-1H-imidazol-2-yl)-5-(trifluoromethyl)thieno[2,3-d]pyrimidine] | < 1 µM | 76 to 100% | 51 to 75% | 1 to 25% | – | – | – | 51 to 75% | 76 to 100% | 26 to 50% | – | 1 to 25% | 0 (0% inhibition)
5 | COC1CCCN(c2nc(-c3nccn3C)nc3sc(-c4ccn(C(C)C)n4)c(C(F)(F)F)c23)C1 (racemic) [Compound 75, Rac-6-(1-Isopropyl-1H-pyrazol-3-yl)-4-(3-methoxypiperidin-1-yl)-2-(1-methyl-1H-imidazol-2-yl)-5-(trifluoromethyl)thieno[2,3-d]pyrimidine] | 5 to 10 µM | 76 to 100% | 51 to 75% | 26 to 50% | – | – | – | 51 to 75% | 51 to 75% | 26 to 50% | – | 1 to 25% | 0 (0% inhibition)
6 | Cc1c(-c2ccn(C(C)C)n2)sc2nc(-c3nccn3C)nc(NCc3c[nH]cn3)c12 [Compound 59, N-((1H-Imidazol-4-yl)methyl)-6-(1-isopropyl-1H-pyrazol-3-yl)-5-methyl-2-(1-methyl-1H-imidazol-2-yl)thieno[2,3-d]pyrimidin-4-amine] | 5 to 10 µM | 51 to 75% | 76 to 100% | 51 to 75% | – | – | – | 51 to 75% | 76 to 100% | 26 to 50% | – | 51 to 75% | 0 (0% inhibition)
7 | Cc1c(-c2ccn(C(C)C)n2)sc2nc(-c3nccn3C)nc(NCc3n[nH]c(=O)n3C)c12 [Compound 60, 5-(((6-(1-Isopropyl-1H-pyrazol-3-yl)-5-methyl-2-(1-methyl-1H-imidazol-2-yl)thieno[2,3-d]pyrimidin-4-yl)amino)methyl)-4-methyl-2,4-dihydro-3H-1,2,4-triazol-3-one] | > 10 µM | 1 to 25% | 51 to 75% | 26 to 50% | – | – | – | 76 to 100% | 51 to 75% | 51 to 75% | – | 51 to 75% | 0 (0% inhibition)
8 | COc1cccc(Nc2nc(-c3nccn3C)nc3sc(-c4ccn(C(C)C)n4)c(C)c23)c1 [Compound 64, 6-(1-Isopropyl-1H-pyrazol-3-yl)-N-(3-methoxyphenyl)-5-methyl-2-(1-methyl-1H-imidazol-2-yl)thieno[2,3-d]pyrimidin-4-amine] | 5 to 10 µM | 76 to 100% | 76 to 100% | 26 to 50% | – | – | – | 26 to 50% | 76 to 100% | 0% | – | 26 to 50% | B (26-50% inhibition)
